Where two headings read alike, the source gives them in different places.
Tests used:
[1] = tested on: CHOK1 parental cells; experiment: Cell adhesion assay, CHOK1 parental cells on fibronectin; type: cell-based, hamster; conditions: FIG. 11
[2] = tested on: Normal human lung fibroblasts; experiment: αSMA imaging, TGFβ-induced αSMA expression; type: cell-based; conditions: TGFβ 5 ng/mL, pre-treated 30 minutes, MK-0429 (10 µM) or SB-525334 (10 μM), 48 hours
Experimental: (§1) αSMA imaging. Primary cells (passage 3-5) were grown on Cell carrier Ultra, collagen Type 1 coated 96-well plates (Perkin Elmer, #6055700) at a density of 25,000 cells/well. Once the cells adhere, they were starved in serum free media for 24 hours followed by addition of treatments, i.e., 5 ng/mL TGFβ (Biolegend #580702)±inhibitors. Cells were pre-treated with inhibitors for 30 minutes prior to the addition of TGFβ stimulation. 48 hours post treatment, the cells were fixed in 4% methanol free paraformaldehyde (ThermoFisher Scientific #28908) for 20 minutes at room temperature and incubated with anti-alpha smooth muscle Actin antibody (Abcam #ab7817) at 1:4000 overnight at 4° C. Following primary antibody incubation, cells were incubated with Goat anti-mouse secondary antibody (ThermoFisher Scientific #A32723) at 1:500 and Hoechst (ThermoFisher Scientific #62249) at 1:1000 for one hour at RT. The fixed and stained cells were images for immunofluorescence on Perkin Elmer's Opera Phenix high content Imager.

[3] = tested on: IPF patient lung fibroblasts; experiment: αSMA imaging, TGFβ-induced αSMA expression; type: cell-based, human; set-up: inhibiting αSMA induction: dose or concentration left out as unconfirmed
Experimental: as §1

[4] = target: T1, hαvβ3 (Homo sapiens, UniProt P05106+P06756); experiment: Human AlphaLISA integrin-ligand blocking assay (vitronectin); type: biochemical
T1 construct: The full extracellular domains for all α and β integrin subunits; (GGGS)3 linker (C); acidic coiled-coil with cysteine (C); GG-Avitag (C); hexa-histidine tag (C); basic coiled-coil with cysteine (C); made in house; host or cells: Expi293 cells
Experimental: (§2) Integrin AlphaLISA assay. In the AlphaLISA integrin assays, we used a HEPES based buffer (25 mM HEPES pH 7.4, 137 mM NaCl, 1 mM MgCl2, 1 mM MnCl2, 2 mM CaCl2, 2.7 mM KCl, and 0.05% Tween 20). Optimal assay conditions were determined with a titration of the reagents for signal noise ratio (S/N), linear range, etc. For the respective integrins, we used the final concentrations described in Table 9.
(§3) Briefly, the testing antibody (8 μL) was added as a 4×(of Final testing concentration) solution in the HEPES buffer described previously into a 384w AlphaPlate™ (Perkin Elmer #6005350). Then the integrin and ligand were added sequentially as 8×(4 μL each). Plates were sealed and incubated at room temperature for two hours. Then 4×acceptor bead solution ([…]) was added, and the plates were resealed and incubated at room temperature (RT) for one hour. Finally, 4×([…]) donor beads solution was added in a darkened room and incubated for 45 minutes at room temperature. Plates were read on the Envision (Perkin Elmer) in AlphaScreen™ mode within three hours of donor bead addition.

[5] = target: T2, hαvβ5 (Homo sapiens, UniProt P06756+P18084); experiment: as above; type: biochemical
T2 construct: The full extracellular domains for all α and β integrin subunits; (GGGS)3 linker (C); acidic coiled-coil with cysteine (C); GG-Avitag (C); hexa-histidine tag (C); basic coiled-coil with cysteine (C); made in house; host or cells: Expi293 cells
Experimental: as §2, §3

[6] = target: T3, mouse αvβ3 (Mus musculus, UniProt O54890+P43406); experiment: Cell adhesion assay, CHOK1-mαvβ3 cells on vitronectin; type: cell-based; conditions: FIG. 11
T3 construct: expressed in transfected cells
Experimental: Cell adhesion assay. For plate preparation, Epic 384-well assay plates (Corning #5040) were washed with OptiMEM™ (Gibco #31985-070) and coated with murine fibronectin (Abcam #ab92784) at a concentration of 0.1 μg/well for CHO-α5KO-mαvβ1 cells; murine vitronectin (Abcam #ab92727) at 0.075 μg/well for CHO-mαvβ3 cells; or murine vitronectin at 0.125 μg/well for CHO-mαvβ5 (all at a volume of 25 μL/well in OptiMEM™), for one hour. Coating solution was then removed by flicking and plates were washed with OptiMEM™ and blocked with 25 μL/well of assay buffer (1% Ovalbumin (Sigma #A5503-10G) in OptiMEM™ containing 1×Pen-Strep (Gibco #15140-148)). A 5-minute baseline reading was taken on a Corning Epica Plate Reader (Model: Epic BT-157900) before removing the assay buffer and adding cells pre-incubated with inhibitors. The Epic™ plate reader detects cellular mass redistribution (adhesion) on the plate surface as a picometer wavelength shift over time. For inhibitor titration preparation: fivefold serial dilutions of small molecule inhibitor MK-0429 or antibody inhibitor Ab-31 were prepared in assay buffer at 4× the final concentration in a 384-well polypropylene plate in a volume of 15 μL per well, starting at a concentration of 800 nM. […]

[7] = target: T4, hαvβ6 (Homo sapiens, UniProt P06756+P18564); experiment: Human AlphaLISA integrin-ligand blocking assay (LAP); type: biochemical
T4 construct: The full extracellular domains for all α and β integrin subunits; (GGGS)3 linker (C); acidic coiled-coil with cysteine (C); GG-Avitag (C); hexa-histidine tag (C); basic coiled-coil with cysteine (C); made in house; host or cells: Expi293 cells
Experimental: as §2, §3

[8] = humans; cited from earlier work
[9] = target: T5, mαvβ5 (Mus musculus, UniProt O70309+P43406); experiment: Mouse AlphaLISA integrin-ligand blocking assay (vitronectin); type: biochemical; conditions: Table 12; read-out: IC50 Mouse integrin AlphaLISA assays mαvβ5
T5 construct: The full extracellular domains for all α and β integrin subunits; (GGGS)3 linker (C); acidic coiled-coil with cysteine (C); GG-Avitag (C); hexa-histidine tag (C); basic coiled-coil with cysteine (C); made in house; host or cells: Expi293 cells
Experimental: as §2, §3

[10] = target: T6, mαvβ3 (Mus musculus, UniProt O54890+P43406); experiment: as above; type: biochemical; conditions: Table 12; read-out: IC50 Mouse integrin AlphaLISA assays mαvβ3
T6 construct: The full extracellular domains for all α and β integrin subunits; (GGGS)3 linker (C); acidic coiled-coil with cysteine (C); GG-Avitag (C); hexa-histidine tag (C); basic coiled-coil with cysteine (C); made in house; host or cells: Expi293 cells
Experimental: as §2, §3

T1 sequence (P06756 31-992 limits assumed): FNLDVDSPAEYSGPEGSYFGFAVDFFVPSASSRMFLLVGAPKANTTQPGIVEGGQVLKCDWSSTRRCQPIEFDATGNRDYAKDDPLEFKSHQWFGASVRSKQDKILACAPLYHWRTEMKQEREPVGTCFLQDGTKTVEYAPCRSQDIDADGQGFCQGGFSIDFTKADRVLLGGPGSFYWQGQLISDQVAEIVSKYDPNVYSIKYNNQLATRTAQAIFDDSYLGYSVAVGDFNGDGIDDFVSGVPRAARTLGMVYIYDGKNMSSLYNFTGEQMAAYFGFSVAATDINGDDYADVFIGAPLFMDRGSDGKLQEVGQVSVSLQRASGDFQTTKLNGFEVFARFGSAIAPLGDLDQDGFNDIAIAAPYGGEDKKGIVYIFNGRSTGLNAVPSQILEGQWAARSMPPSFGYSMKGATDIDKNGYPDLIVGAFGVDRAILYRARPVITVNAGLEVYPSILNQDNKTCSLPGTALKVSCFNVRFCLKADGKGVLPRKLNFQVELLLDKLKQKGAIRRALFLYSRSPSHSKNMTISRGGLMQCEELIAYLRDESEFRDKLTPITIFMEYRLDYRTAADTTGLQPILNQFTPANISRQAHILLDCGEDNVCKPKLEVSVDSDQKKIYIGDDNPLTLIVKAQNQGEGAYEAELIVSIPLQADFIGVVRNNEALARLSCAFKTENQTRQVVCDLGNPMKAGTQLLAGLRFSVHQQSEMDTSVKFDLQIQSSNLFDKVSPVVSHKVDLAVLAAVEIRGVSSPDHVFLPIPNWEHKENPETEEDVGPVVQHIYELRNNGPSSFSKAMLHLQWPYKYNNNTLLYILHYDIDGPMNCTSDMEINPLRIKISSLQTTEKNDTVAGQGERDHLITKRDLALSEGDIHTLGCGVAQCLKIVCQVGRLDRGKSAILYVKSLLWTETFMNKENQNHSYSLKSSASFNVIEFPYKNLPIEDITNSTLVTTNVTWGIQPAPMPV
T1 sequence (P05106 27-718 limits assumed): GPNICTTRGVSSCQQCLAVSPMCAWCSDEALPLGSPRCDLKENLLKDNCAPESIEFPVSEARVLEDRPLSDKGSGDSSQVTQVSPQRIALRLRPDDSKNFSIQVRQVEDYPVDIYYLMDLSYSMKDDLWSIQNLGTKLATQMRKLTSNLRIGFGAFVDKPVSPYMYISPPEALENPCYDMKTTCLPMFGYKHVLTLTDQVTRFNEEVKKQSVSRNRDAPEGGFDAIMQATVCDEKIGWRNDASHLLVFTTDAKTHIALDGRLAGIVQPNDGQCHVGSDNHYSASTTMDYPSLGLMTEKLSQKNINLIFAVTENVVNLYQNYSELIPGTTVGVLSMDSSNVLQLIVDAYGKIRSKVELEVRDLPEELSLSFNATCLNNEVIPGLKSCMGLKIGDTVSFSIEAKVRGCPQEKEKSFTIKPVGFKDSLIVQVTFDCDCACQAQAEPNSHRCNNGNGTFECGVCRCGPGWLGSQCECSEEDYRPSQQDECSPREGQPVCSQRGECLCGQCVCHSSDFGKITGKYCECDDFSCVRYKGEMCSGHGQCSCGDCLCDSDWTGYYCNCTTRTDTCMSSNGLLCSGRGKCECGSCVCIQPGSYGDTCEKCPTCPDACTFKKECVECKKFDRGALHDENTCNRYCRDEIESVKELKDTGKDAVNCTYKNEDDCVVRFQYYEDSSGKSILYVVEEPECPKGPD
T4 sequence (P06756 31-992 limits assumed): as the sequence (P06756 31-992 limits assumed) above
T4 sequence (P18564 22-709 limits assumed): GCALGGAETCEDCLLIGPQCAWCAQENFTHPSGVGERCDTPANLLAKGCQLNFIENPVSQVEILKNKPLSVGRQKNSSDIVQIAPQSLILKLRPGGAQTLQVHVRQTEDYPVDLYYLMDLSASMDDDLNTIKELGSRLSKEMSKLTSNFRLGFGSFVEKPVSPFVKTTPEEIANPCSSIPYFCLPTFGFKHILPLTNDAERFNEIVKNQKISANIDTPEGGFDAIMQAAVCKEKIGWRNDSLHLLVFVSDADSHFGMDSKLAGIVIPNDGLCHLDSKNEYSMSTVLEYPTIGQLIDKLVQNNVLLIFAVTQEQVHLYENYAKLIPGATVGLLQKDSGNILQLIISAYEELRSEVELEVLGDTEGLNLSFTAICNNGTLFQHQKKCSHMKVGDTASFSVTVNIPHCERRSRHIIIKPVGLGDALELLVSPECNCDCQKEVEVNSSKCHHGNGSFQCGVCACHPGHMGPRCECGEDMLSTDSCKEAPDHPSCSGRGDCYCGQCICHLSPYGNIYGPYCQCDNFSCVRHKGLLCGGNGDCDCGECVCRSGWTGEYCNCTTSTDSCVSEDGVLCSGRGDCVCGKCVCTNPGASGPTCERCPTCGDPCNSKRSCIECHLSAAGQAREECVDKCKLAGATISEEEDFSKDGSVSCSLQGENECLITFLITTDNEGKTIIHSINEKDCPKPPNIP
T2 sequence (P06756 31-992 limits assumed): as the sequence (P06756 31-992 limits assumed) above
T2 sequence (P18084 24-719 limits assumed): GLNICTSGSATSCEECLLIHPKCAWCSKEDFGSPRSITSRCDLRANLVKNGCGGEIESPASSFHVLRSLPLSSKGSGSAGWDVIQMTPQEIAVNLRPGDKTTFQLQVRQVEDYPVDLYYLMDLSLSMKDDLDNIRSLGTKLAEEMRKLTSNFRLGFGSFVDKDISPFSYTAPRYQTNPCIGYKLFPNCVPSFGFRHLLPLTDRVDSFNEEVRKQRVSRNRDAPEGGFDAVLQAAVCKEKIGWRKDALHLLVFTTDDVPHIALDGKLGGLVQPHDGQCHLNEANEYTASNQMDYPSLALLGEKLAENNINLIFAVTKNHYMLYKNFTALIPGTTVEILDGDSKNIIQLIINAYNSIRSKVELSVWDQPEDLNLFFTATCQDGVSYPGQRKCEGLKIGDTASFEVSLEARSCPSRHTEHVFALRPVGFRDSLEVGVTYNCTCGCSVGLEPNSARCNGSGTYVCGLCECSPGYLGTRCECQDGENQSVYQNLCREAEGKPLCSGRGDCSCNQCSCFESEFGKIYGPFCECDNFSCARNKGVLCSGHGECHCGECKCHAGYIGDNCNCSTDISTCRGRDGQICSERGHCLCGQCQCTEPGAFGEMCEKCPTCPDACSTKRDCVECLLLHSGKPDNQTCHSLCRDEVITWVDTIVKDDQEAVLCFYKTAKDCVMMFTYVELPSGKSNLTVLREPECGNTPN
T6 sequence (P43406 31-988 limits assumed): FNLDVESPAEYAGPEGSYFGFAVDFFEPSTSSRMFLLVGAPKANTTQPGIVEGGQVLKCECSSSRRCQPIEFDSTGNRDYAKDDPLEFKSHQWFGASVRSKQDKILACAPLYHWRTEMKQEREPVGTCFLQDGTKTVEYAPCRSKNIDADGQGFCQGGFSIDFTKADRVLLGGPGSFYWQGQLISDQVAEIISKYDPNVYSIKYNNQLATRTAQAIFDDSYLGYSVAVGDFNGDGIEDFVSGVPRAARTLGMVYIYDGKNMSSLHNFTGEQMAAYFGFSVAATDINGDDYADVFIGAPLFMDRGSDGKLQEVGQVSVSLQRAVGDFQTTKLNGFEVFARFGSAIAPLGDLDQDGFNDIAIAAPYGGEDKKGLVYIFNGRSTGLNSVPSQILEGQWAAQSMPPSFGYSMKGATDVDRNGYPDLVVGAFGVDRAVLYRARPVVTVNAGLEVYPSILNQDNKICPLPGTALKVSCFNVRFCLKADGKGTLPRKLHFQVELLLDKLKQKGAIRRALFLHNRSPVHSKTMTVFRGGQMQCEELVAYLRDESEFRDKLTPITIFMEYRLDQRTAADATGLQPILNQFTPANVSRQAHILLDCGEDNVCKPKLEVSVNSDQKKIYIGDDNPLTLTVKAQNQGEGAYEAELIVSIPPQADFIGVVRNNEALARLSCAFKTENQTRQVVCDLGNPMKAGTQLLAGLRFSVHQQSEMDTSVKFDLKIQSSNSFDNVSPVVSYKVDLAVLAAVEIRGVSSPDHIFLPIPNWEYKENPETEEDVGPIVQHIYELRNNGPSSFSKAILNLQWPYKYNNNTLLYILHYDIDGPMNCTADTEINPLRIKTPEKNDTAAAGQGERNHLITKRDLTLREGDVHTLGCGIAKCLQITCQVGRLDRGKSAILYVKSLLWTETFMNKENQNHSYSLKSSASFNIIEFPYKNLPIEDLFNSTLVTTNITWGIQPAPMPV
T6 sequence (O54890 26-717 limits assumed): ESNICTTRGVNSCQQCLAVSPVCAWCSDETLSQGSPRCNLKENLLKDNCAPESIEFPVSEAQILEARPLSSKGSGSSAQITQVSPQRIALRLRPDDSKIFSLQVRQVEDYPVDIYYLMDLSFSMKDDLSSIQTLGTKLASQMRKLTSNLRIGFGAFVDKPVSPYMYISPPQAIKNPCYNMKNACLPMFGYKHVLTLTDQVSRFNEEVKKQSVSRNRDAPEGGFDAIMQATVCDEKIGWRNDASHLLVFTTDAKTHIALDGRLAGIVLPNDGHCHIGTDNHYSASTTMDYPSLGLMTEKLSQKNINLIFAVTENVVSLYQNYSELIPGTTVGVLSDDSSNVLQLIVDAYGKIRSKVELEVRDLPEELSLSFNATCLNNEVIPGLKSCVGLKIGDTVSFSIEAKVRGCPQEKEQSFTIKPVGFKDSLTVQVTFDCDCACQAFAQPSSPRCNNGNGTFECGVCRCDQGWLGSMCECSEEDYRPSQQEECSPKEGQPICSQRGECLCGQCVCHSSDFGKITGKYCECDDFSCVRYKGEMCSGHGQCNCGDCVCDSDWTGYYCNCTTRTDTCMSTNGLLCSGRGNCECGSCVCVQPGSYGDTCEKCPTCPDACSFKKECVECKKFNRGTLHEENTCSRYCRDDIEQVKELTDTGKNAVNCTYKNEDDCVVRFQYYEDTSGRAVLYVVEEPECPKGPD

IC50 ([4]; FIG. 3D, curve-fitted, read-out: IC50 against human αvβ3, AlphaLISA): 0.15 nM
IC50 ([4]; Table 11, read-out: IC50 Human integrin AlphaLISA assays hαvβ3): 1.6 nM
IC50 ([5]; FIG. 3D, curve-fitted, read-out: IC50 against human αvβ5, AlphaLISA): 9.9 nM
IC50 ([5]; Table 11, read-out: IC50 Human integrin AlphaLISA assays hαvβ5): 2.9 nM
cell adhesion of mouse αvβ3 on a vitronectin matrix [6]: decreased
IC50 ([7]; FIG. 3D, curve-fitted, read-out: IC50 against human αvβ6, AlphaLISA): 3.8 nM
IC50 ([7]; Table 11, read-out: IC50 Human integrin AlphaLISA assays hαvβ6): 0.5 nM
IC50 [9]: 48.3 nM
IC50 [10]: 0.9 nM
SMILES: COc1ccc([C@H](CC(=O)O)N2CCN(CCCc3ccc4c(n3)NCCC4)C2=O)cn1 [MK-0429, (3S)-3-(6-methoxypyridin-3-yl)-3-[2-oxo-3-[3-(5,6,7,8-tetrahydro-1,8-naphthyridin-2-yl)propyl]imidazolidin-1-yl]propanoic acid]
inhibition of adhesion of CHOK1 parental cells on fibronectin [1]: little inhibitory activity
αSMA intensity and the percentage of stimulated cells following TGFβ treatment [2]: significantly reduced
inhibiting αSMA induction [3]: minimal activity
oral bioavailability [8]: good oral bioavailability
